Results as given in US4604238A, “Analogs of calcitonin” (Armour Pharmaceutical Company, priority 1984, dated 1986).
Bridge positions count the residues as written; N and C are the ends. Peptide text beside a SMILES is read from it.

Columns and labels:
[1] = literature values, Experientia 32(9), 1104-1106 (1976); cited from earlier work
[2] = system: serum calcium concentration
Procedure: Biological Assay of Calcitonin Analogs In Vivo
Rats were divided into four groups of seven animals, and each group was assigned at random to a dose of standard or test solution. Low and high doses were chosen from the linear portion of the dose-response curve. For the salmon calcitonin standard, the values were 0.7 and 2.1 ng. peptide/100 g. body weight (BW). This dose approximates 3 and 9 MU/100 g. BW. Peptides were given by subcutaneous injection (0.2 ml/100 g. BW) and blood was withdrawn 1 hour later for serum calcium determination. Sera are processed and analyzed within two hours of collection. Results were analyzed within two hours of collection.

In the case of “eel calcitonin [synthetic eel calcitonin]”, the hypocalcemic potency [1] is listed as “around 4300 IU/mg”.
For “(1,7α-L-aminosuberic acid)eel calcitonin”, the hypocalcemic potency [1] is given as “about 3400 IU/mg”.
For `CC(C)C[C@H](NC(=O)CNC(=O)[C@@H]1CSSC[C@H](N)C(=O)NCC(=O)N[C@@H](CO)C(=O)N[C@@H](CC(C)C)C(=O)N[C@@H](CO)C(=O)N[C@@H]([C@@H](C)O)C(=O)N1)C(=O)NCC(=O)N[C@@H](CCCCN)C(=O)N[C@@H](CC(C)C)C(=O)N[C@@H](CO)C(=O)N[C@@H](CCC(N)=O)C(=O)N[C@@H](CCC(=O)O)C(=O)N[C@@H](CC(C)C)C(=O)N[C@@H](Cc1c[nH]cn1)C(=O)N[C@@H](CCCCN)C(=O)N[C@@H](CC(C)C)C(=O)N[C@@H](CCC(N)=O)C(=O)N[C@H](C(=O)N1CCC[C@H]1C(=O)N[C@@H](CCCNC(=N)N)C(=O)N[C@H](C(=O)N[C@@H](CC(N)=O)C(=O)N[C@H](C(=O)NCC(=O)N[C@@H](CO)C(=O)NCC(=O)N[C@H](C(=O)N1CCC[C@H]1C(N)=O)[C@@H](C)O)[C@@H](C)O)[C@@H](C)O)[C@@H](C)O` [[Gly^2,Ser^3,Gly^8,des-Tyr^22]SCT, [Gly^2,Ser^3,Gly^8,des-Tyr^22]salmon calcitonin] (H-CGSLSTCGLGKLSQELHKLQTPRTNTGSGTP-NH2; disulfide 1-7), the biological potency ([2]; rat, in vivo, sc) was 8600 IU/mg.
In the case of `CC(C)C[C@H](NC(=O)[C@H](CCCCN)NC(=O)CNC(=O)[C@H](CC(C)C)NC(=O)[C@@H](NC(=O)[C@@H]1CSSC[C@H](N)C(=O)N[C@@H](CO)C(=O)N[C@@H](CC(N)=O)C(=O)N[C@@H](CC(C)C)C(=O)N[C@@H](CO)C(=O)N[C@@H]([C@@H](C)O)C(=O)N1)C(C)C)C(=O)N[C@@H](CO)C(=O)N[C@@H](CCC(N)=O)C(=O)N[C@@H](CCC(=O)O)C(=O)N[C@@H](CC(C)C)C(=O)N[C@@H](Cc1c[nH]cn1)C(=O)N[C@@H](CCCCN)C(=O)N[C@@H](CC(C)C)C(=O)N[C@@H](CCC(N)=O)C(=O)N[C@H](C(=O)N[C@@H](Cc1ccc(O)cc1)C(=O)N1CCC[C@H]1C(=O)N[C@@H](CCCNC(=N)N)C(=O)N[C@H](C(=O)N[C@@H](CC(N)=O)C(=O)N[C@H](C(=O)NCC(=O)N[C@@H](CO)C(=O)NCC(=O)N[C@H](C(=O)N1CCC[C@H]1C(N)=O)[C@@H](C)O)[C@@H](C)O)[C@@H](C)O)[C@@H](C)O` [salmon calcitonin, Salmon calcitonin], the “potency of the standard salmon calcitonin used” value ([2]; independently determined content of the standard) is reported as “greater than 4,000 IU/mg”.
